Results taken from US12570648B2, “6,7-dihydro-5H-pyrido[2,3-c]pyridazine derivatives and related compounds as Bcl-xL protein inhibitors and pro-apoptotic agents for treating cancer” (LES LABORATOIRES SERVIER, priority 2019, dated 2026).

Columns and labels:
[1] = target: His-His-(EK)-hsBCLXL(2-197)[N197C] (Homo sapiens (Human), UniProt Q07817, N197C); assay: Fluorescence quenching assay; format: binding; conditions: 1 nM Cy5-labelled protein, 400 nM PUMA peptide, 2 hours at 23° C.; KI determined from IC50
Chain of His-His-(EK)-hsBCLXL(2-197)[N197C] (Q07817 2-197 N197C): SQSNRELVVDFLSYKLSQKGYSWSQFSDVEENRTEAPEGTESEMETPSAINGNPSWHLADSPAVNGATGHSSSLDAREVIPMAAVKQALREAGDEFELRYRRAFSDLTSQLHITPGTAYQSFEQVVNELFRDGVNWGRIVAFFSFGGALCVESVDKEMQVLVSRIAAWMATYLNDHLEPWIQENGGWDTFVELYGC
Source text: Fluorescence quenching assay measures the change in fluorescence intensity of C-terminally Cy5-labelled BCL-xL protein, His-His-(EK)-hsBCLXL(2-197)[N197C] (UniProtKB®
which is linked in C-terminal region to the amino acid X which corresponds to a cysteine labelled on the sulfur with Sulfo-Cyanine5 from Lumiprobe GmbH catalogue number 13380, upon binding of a C-terminally labelled peptide derived from PUMA (UniProtKB® primary accession number Q9BXH1) having an aminoacid sequence (SEQ ID:04): [[…]] which is linked in C-terminal region to the amino acid X′ where X′ is cysteine labelled on the sulfur with TQ5WS from AAT Bioquest catalogue number 2079.
The addition of a compound which binds competitively to the same site as the peptide will result in an increase in the fluorescence intensity of the protein due to displacement of the fluorescence quencher.
An 11-point serial dilution of each compound was prepared in DMSO, the final buffer conditions were 10 mM 4-(2-hydroxyethyl)-1-piperazineethanesulfonic acid [HEPES], 150 mM NaCl, 0.05% Tween 20, pH 7.4 and 5% DMSO. The final protein concentration in the assay was 1 nM with the peptide present at 400 nM. The experiments were incubated for 2 hours at 23° C. before fluorescence intensity was measured on a Biotek SynergyNeo plate reader (Excitation 620 nm, emission 680 nm). […] The K1 values were determined from the IC50 values according to Cer et al, Nucleic Acids Res, 2009, Jul. 1; 37 (WebServer issue): W441-W445.

MOLT-4 cells = assay: MOLT-4 cell viability using MTT assay; format: cell-based; conditions: 48 h exposure
Procedure: MTT colorimetric assay is based on the mitochondrial reduction of tetrazolium salt by living cells.
Cells were cultured at 37° C. in a humidified atmosphere containing 5% CO2. […] At the end of incubation time, 15 μL of MTT solution (5 mg/ml) were added per well and the cells were incubated for another 4 h. […] IC50s were calculated using standard four-parametric curve fitting.

Question: What does the source list for `Cc1c(Nc2nc3ccccc3s2)nnc2c1CCCN2c1ccc(-c2cnn(CC34CC5(C)CC(C)(C3)CC(OCCNCCC(O)CO)(C5)C4)c2C)c(C(=O)O)n1` (stereo in doubt) [Example 92, 6-{3-[(1,3-benzothiazol-2-yl)amino]-4-methyl-6,7-dihydropyrido[2,3-c]pyridazin-8(5H)-yl}-3-(1-{[3-(2-{[(3S)-3,4-dihydroxybutyl]amino}ethoxy)-5,7-dimethyladamantan-1-yl]methyl}-5-methyl-1H-pyrazol-4-yl)pyridine-2-carboxylic acid]?
Answer: Ki [1]: 0.0017 nM; IC50 (MOLT-4 cells): 4.58 nM

Question: Which Ki [1] does the source give for `CNCCCc1ccc(OCCCc2sc(N3CCCc4c3nnc(Nc3nc5ccccc5s3)c4C)nc2C(=O)O)c(F)c1` [Example 34, 2-{3-[(1,3-Benzothiazol-2-yl)amino]-4-methyl-5H,6H,7H,8H-pyrido[2,3-c]pyridazin-8-yl}-5-(3-{2-fluoro-4-[3-(methylamino)propyl]phenoxy}propyl)-1,3-thiazole-4-carboxylic acid] here?
Answer: 0.0019 nM

Question: What does the source list for `Cc1c(Nc2nc3ccccc3s2)nnc2c1CCCN2c1nc(C(=O)O)c(CCCOc2ccc(CCCN3CCCC3)cc2F)s1` [Example 69, 2-[3-(1,3-Benzothiazol-2-ylamino)-4-methyl-6,7-dihydro-5H-pyrido[2,3-c]pyridazin-8-yl]-5-[3-[2-fluoro-4-(3-pyrrolidin-1-ylpropyl)phenoxy]propyl]thiazole-4-carboxylic acid]?
Answer: Ki [1]: 0.0037 nM; IC50 (MOLT-4 cells; Homo sapiens, MOLT-4, 48 h): 4.11 nM

Question: Which Ki [1] does the source give for `Cc1c(Nc2nc3ccccc3s2)nnc2c1CCCN2c1nc(C(=O)O)c(CCCOc2ccc(CCCN3C[C@@H]4[C@H](C3)C4(F)F)cc2F)s1` [Example 72, 2-[3-(1,3-Benzothiazol-2-ylamino)-4-methyl-6,7-dihydro-5H-pyrido[2,3-c]pyridazin-8-yl]-5-[3-[4-[3-[(1R,5S)-6,6-difluoro-3-azabicyclo[3.1.0]hexan-3-yl]propyl]-2-fluoro-phenoxy]propyl]thiazole-4-carboxylic acid] here?
Answer: 0.08 nM

Question: And the IC50 (MOLT-4 cells; Homo sapiens, MOLT-4, 48 h)?
Answer: 13.9 nM

Question: Which Ki [1] does the source give for `Cc1c(Nc2nc3ccccc3s2)nnc2c1CCCN2c1nc(C(=O)O)c(CCCOc2cc3c(cc2F)CN(C)CC3)s1` [Example 74, 2-{3-[(1,3-Benzothiazol-2-yl)amino]-4-methyl-5H,6H,7H,8H-pyrido[2,3-c]pyridazin-8-yl}-5-{3-[(7-fluoro-2-methyl-1,2,3,4-tetrahydroisoquinolin-6-yl)oxy]propyl}-1,3-thiazole-4-carboxylic acid] here?
Answer: 0.01 nM

Question: `CNCCCCc1ccc(OCCCc2sc(N3CCCc4c3nnc(Nc3nc5ccccc5s3)c4C)nc2C(=O)O)c(F)c1` [Example 75, 2-{3-[(1,3-Benzothiazol-2-yl)amino]-4-methyl-5H,6H,7H,8H-pyrido[2,3-c]pyridazin-8-yl}-5-(3-{2-fluoro-4-[4-(methylamino)butyl]phenoxy}propyl)-1,3-thiazole-4-carboxylic acid] was tested. Which Ki [1] did it give?
Answer: 0.0033 nM

Question: What about the IC50 (MOLT-4 cells; Homo sapiens, MOLT-4, 48 h) of the same compound?
Answer: 9.78 nM

Question: `Cc1c(Nc2nc3ccccc3s2)nnc2c1CCCN2c1nc(C(=O)O)c(CCCOc2ccc(C#CCNCCN(C)C)cc2F)s1` [Example 76, 2-[3-(1,3-Benzothiazol-2-ylamino)-4-methyl-6,7-dihydro-5H-pyrido[2,3-c]pyridazin-8-yl]-5-[3-[4-[3-[2-(dimethylamino)ethylamino]prop-1-ynyl]-2-fluoro-phenoxy]propyl]thiazole-4-carboxylic acid] was tested. Which Ki [1] did it give?
Answer: 0.0018 nM

Question: And the IC50 (MOLT-4 cells; Homo sapiens, MOLT-4, 48 h)?
Answer: 0.74 nM

Question: For `Cc1c(Nc2nc3ccccc3s2)nnc2c1CCCN2c1nc(C(=O)O)c(CCCOc2ccc(I)cc2F)s1` [Example 77, 2-[3-(1,3-Benzothiazol-2-ylamino)-4-methyl-6,7-dihydro-5H-pyrido[2,3-c]pyridazin-8-yl]-5-[3-(2-fluoro-4-iodo-phenoxy)propyl]thiazole-4-carboxylic acid], which Ki [1] is on record?
Answer: 0.17 nM

Question: What about the IC50 (MOLT-4 cells; Homo sapiens, MOLT-4, 48 h) of the same compound?
Answer: 226 nM

Question: `Cc1c(Nc2nc3ccccc3s2)nnc2c1CCCN2c1nc(C(=O)O)c(CCCOc2cc(C#CCN(C)C)ccc2F)s1` [Example 78, 2-[3-(1,3-Benzothiazol-2-ylamino)-4-methyl-6,7-dihydro-5H-pyrido[2,3-c]pyridazin-8-yl]-5-[3-[5-[3-(dimethylamino)prop-1-ynyl]-2-fluoro-phenoxy]propyl]thiazole-4-carboxylic acid] was tested. Which Ki [1] did it give?
Answer: 0.023 nM

Question: And the IC50 (MOLT-4 cells; Homo sapiens, MOLT-4, 48 h)?
Answer: 2.46 nM

Question: How did the Ki [1] turn out when `Cc1c(Nc2nc3ccccc3s2)nnc2c1CCCN2c1nc(C(=O)O)c(CCCOc2ccc(C#CCN3CCNCC3)cc2F)s1` [Example 79, 2-[3-(1,3-Benzothiazol-2-ylamino)-4-methyl-6,7-dihydro-5H-pyrido[2,3-c]pyridazin-8-yl]-5-[3-[2-fluoro-4-(3-piperazin-1-ylprop-1-ynyl)phenoxy]propyl]thiazole-4-carboxylic acid] was run?
Answer: 0.0052 nM

Question: What about the IC50 (MOLT-4 cells; Homo sapiens, MOLT-4, 48 h) of the same compound?
Answer: 1.01 nM

Question: `Cc1c(Nc2nc3ccccc3s2)nnc2c1CCCN2c1nc(C(=O)O)c(CCCOc2ccc(C#CCN(CC(C)C)CC(C)C)cc2F)s1` [Example 87, 2-[3-(1,3-Benzothiazol-2-ylamino)-4-methyl-6,7-dihydro-5H-pyrido[2,3-c]pyridazin-8-yl]-5-[3-[4-[3-(diisobutylamino)prop-1-ynyl]-2-fluoro-phenoxy]propyl]thiazole-4-carboxylic acid] was tested. Which Ki [1] did it give?
Answer: 0.044 nM

Question: For `Cc1c(Nc2nc3ccccc3s2)nnc2c1CCCN2c1ccc(-c2cnn(CC34CC5(C)CC(C)(C3)CC(OCCN(CCCO)CCCO)(C5)C4)c2C)c(C(=O)O)n1` [Example 137, 6-[3-(1,3-benzothiazol-2-ylamino)-4-methyl-6,7-dihydro-5H-pyrido[2,3-c]pyridazin-8-yl]-3-[1-[[3-[2-[bis(3-hydroxypropyl)amino]ethoxy]-5,7-dimethyl-1-adamantyl]methyl]-5-methyl-pyrazol-4-yl]pyridine-2-carboxylic acid], which IC50 (MOLT-4 cells; Homo sapiens, MOLT-4, 48 h) is on record?
Answer: 5.78 nM

Question: With `Cc1c(Nc2nc3ccccc3s2)nnc2c1CCCN2c1ccc(-c2cnn(CC34CC5(C)CC(C)(C3)CC(OCCNCCCO)(C5)C4)c2C)c(C(=O)O)n1` [Example 138, 6-[3-(1,3-benzothiazol-2-ylamino)-4-methyl-6,7-dihydro-5H-pyrido[2,3-c]pyridazin-8-yl]-3-[1-[[3-[2-(3-hydroxypropylamino)ethoxy]-5,7-dimethyl-1-adamantyl]methyl]-5-methyl-pyrazol-4-yl]pyridine-2-carboxylic acid] as the compound, how does the IC50 (MOLT-4 cells; Homo sapiens, MOLT-4, 48 h) read?
Answer: 1.01 nM

Question: Which Ki [1] does the source give for `Cc1c(Nc2nc3cc(O)ccc3s2)nnc2c1CCCN2c1ccc(-c2cnn(CC34CC5(C)CC(C)(C3)CC(OCCN3CCCC3)(C5)C4)c2C)c(C(=O)O)n1` [Example 152, 3-[1-[[3,5-dimethyl-7-(2-pyrrolidin-1-ylethoxy)-1-adamantyl]methyl]-5-methyl-pyrazol-4-yl]-6-[3-[(5-hydroxy-1,3-benzothiazol-2-yl)amino]-4-methyl-6,7-dihydro-5H-pyrido[2,3-c]pyridazin-8-yl]pyridine-2-carboxylic acid] here?
Answer: 0.0017 nM

Question: With `Cc1c(Nc2nc3ccccc3s2)nnc2c1CCCN2c1ccc(-c2cnn(CC34CC5CC(C3)CC(OCCN(C)C)(C5)C4)c2C)c(C(=O)O)n1` [Example 154, 6-[3-(1,3-benzothiazol-2-ylamino)-4-methyl-6,7-dihydro-5H-pyrido[2,3-c]pyridazin-8-yl]-3-[1-[[3-[2-(dimethylamino)ethoxy]-1-adamantyl]methyl]-5-methyl-pyrazol-4-yl]pyridine-2-carboxylic acid] as the compound, how does the IC50 (MOLT-4 cells; Homo sapiens, MOLT-4, 48 h) read?
Answer: 0.449 nM

Question: `Cc1c(Nc2nc3ccccc3s2)nnc2c1CCCN2c1ccc(-c2cnn(CC34CC5CC(C3)CC(OCCN3CCCC3)(C5)C4)c2C)c(C(=O)O)n1` [Example 155, 6-[3-(1,3-benzothiazol-2-ylamino)-4-methyl-6,7-dihydro-5H-pyrido[2,3-c]pyridazin-8-yl]-3-[5-methyl-1-[[3-(2-pyrrolidin-1-ylethoxy)-1-adamantyl]methyl]pyrazol-4-yl]pyridine-2-carboxylic acid] was tested. Which IC50 (MOLT-4 cells; Homo sapiens, MOLT-4, 48 h) did it give?
Answer: 0.543 nM

Question: How did the IC50 (MOLT-4 cells; Homo sapiens, MOLT-4, 48 h) turn out when `Cc1c(Nc2nc3ccccc3s2)nnc2c1CCCN2c1ccc(-c2cnn(CC34CC5CC(C3)CC(OCCNCC[C@H](O)CO)(C5)C4)c2C)c(C(=O)O)n1` [Example 160, 6-[3-(1,3-benzothiazol-2-ylamino)-4-methyl-6,7-dihydro-5H-pyrido[2,3-c]pyridazin-8-yl]-3-[1-[[3-[2-[[(3S)-3,4-dihydroxybutyl]amino]ethoxy]-1-adamantyl]methyl]-5-methyl-pyrazol-4-yl]pyridine-2-carboxylic acid] was run?
Answer: > 100 nM

Question: With `COc1ccc2sc(Nc3nnc4c(c3C)CCCN4c3ccc(-c4cnn(CC56CC7(C)CC(C)(C5)CC(OCCN5CCCC5)(C7)C6)c4C)c(C(=O)O)n3)nc2c1` [Example 180, 3-[1-[[3,5-dimethyl-7-(2-pyrrolidin-1-ylethoxy)-1-adamantyl]methyl]-5-methyl-pyrazol-4-yl]-6-[3-[(5-methoxy-1,3-benzothiazol-2-yl)amino]-4-methyl-6,7-dihydro-5H-pyrido[2,3-c]pyridazin-8-yl]pyridine-2-carboxylic acid] as the compound, how does the IC50 (MOLT-4 cells; Homo sapiens, MOLT-4, 48 h) read?
Answer: 0.13 nM
